From patent publication US11591634B1, “Forecasting bacterial survival-success and adaptive evolution through multiomics stress-response mapping and machine learning” (priority 2019, dated 2023)
≈ marks a conversion by molar mass, not a printed value.

Legend:
[1] = system: Acinetobacter baumannii LAC-4; assay: Fitness outcome under ciprofloxacin (growth curve assay); assay type: cell-based; conditions: A. baumannii LAC-4; 1 μg/mL ciprofloxacin
From the text: (§1) S. pneumoniae strain TIGR4 (T4; NC_003028.3) is a serotype 4 strain originally isolated from a patient^3,4, Taiwan-19F (19F; NC_012469.1) is a multi-drug resistant strain^5,6 and D39 (NC_008533) is a commonly used serotype 2 strain originally isolated from a patient about 90 years ago^7. Strain PG1 and PG19 were isolated from adults with pneumococcal bacteremia infection and included in the Pneumococcal Bacteremia Collection Nijmegen (PBCN)^8. All S. pneumoniae gene numbers refer to the T4 genome. Correspondence between homologous genes among S. pneumoniae strains and gene function annotations are described herewith. Escherichia coli strain AR538, Klebsiella pneumoniae strain AR497 and Salmonella enterica subsp Typhimurium strain AR635 were clinical isolates obtained from the Center of Disease Control (CDC). Staphylococcus aureus strain MN6 was kindly provided by George Sakoulas (Center of Immunity, Infection & Inflammation, UCSD School of Medicine). Unless otherwise specified, S. pneumoniae strains were cultivated in Todd Hewitt medium with 5% yeast extract (THY) with 5 μL/mL oxyrase (Oxyrase, Inc) or on sheep's blood agar plates (Northeastern Laboratories) at 37° C. with 5% CO2. A. baumannii, E. coll. […] Single strain growth assays were performed at least three times using 96-well plates by taking OD600 measurements on a Tecan Infinite 200 PRO plate reader.

[2] = system: Acinetobacter baumannii 17978; assay: as above; assay type: cell-based; conditions: A. baumannii 17978; 1 μg/mL ciprofloxacin
From the text: as §1

[3] = system: S. pneumoniae strain Taiwan-19F (19F); assay: Determination of relative minimal inhibitory concentration (MIC); assay type: cell-based, Streptococcus pneumoniae; conditions: Streptococcus pneumoniae, 16 h, read-out: 1x MIC for 19F
Procedure: (§2) Each concentration was tested in triplicate. Growth was monitored on a Tecan Infinite 200 PRO plate reader at 37° C. for 16 hours. MIC is determined as the lowest concentration that abolishes bacterial growth (FIGS. 6A-6H).

[4] = system: S. pneumoniae strain TIGR4 (T4); assay: as above; assay type: cell-based, Streptococcus pneumoniae; conditions: Streptococcus pneumoniae, lowest concentration that abolishes bacterial growth, 16 hours, 37° C., read-out: 1x MIC for T4
Procedure: as §2

[5] = system: A. baumannii ATCC 17978; assay: Single time-point entropy (RNA-Seq) with linear regression MIC prediction; assay type: cell-based; conditions: Acinetobacter baumannii, ATCC17978, 2 h; read-out: predicted MIC (linear regression model on entropy)

Question: With O=C(O)c1cn(C2CC2)c2cc(N3CCNCC3)c(F)cc2c1=O [Ciprofloxacin, ciprofloxacin] as the molecule, how does the Fitness [1] read?
Answer: High

Question: And the Fitness [2]?
Answer: Low

Question: And the MIC [3]?
Answer: 1 µg/mL (≈ 3.02 µM)

Question: And the MIC [4]?
Answer: 1 µg/mL (≈ 3.02 µM)

Question: What about the MIC [5] of the same molecule?
Answer: 0.04 µg/mL (≈ 0.121 µM)
